The text below walks through data of patent publication US20080280879A1, “SUBSTITUTED HETEROCYCLIC DERIVATIVES AND THEIR PHARMACEUTICAL USE AND COMPOSITIONS” (priority 2007, published 2008).

In brackets after ≈: the same amount, converted by molar mass.

Holding throughout (format): cell-based, Staphylococcus aureus
Experiment [1] relates to Staph aureus 1095 MRSA. Description: MIC, microtiter broth dilution (CLSI M7-A7), Assay 1, Table 12 column A, no serum. Particulars: Assay 1, no serum; for MIC: Staphylococcus aureus, MRSA. On the procedure:
(§1) The assays described herein include a panel of bacterial isolates of Staphylococcus aureus. Assay 1 comprises the strains noted in Columns A through E, and Assay 2 comprises the strains noted in Columns F through H. The assays are performed in microtiter trays according to Methods for Dilution Antimicrobial Susceptibility Tests for Bacteria that Grow Aerobically; Approved Standard-7th edition (M7-A7) and interpreted according to the Performance Standards for Antimicrobial Susceptibility Testing; 16th Informational Supplement (M100-S16) published by Clinical Laboratory Standards Institute (CLSI). The antibacterial activity is presented in the form of a minimum inhibitory concentration (MIC) value in μg/ml format. The MIC value represents the lowest concentration of drug measured which prevented macroscopically visible growth under the conditions and specific doses tested. The compounds were initially dissolved in DMSO as 30 mM stocks and diluted accordingly to adjust to a concentration of 10 mg/ml or the compounds were dissolved in DMSO at a concentration of 10 mg/ml. For assessment of activity in the presence of human serum, S. aureus 1146 and S. aureus 1031 were inoculated into Mueller-Hinton Broth with 50% pooled inactivated human serum. In some cases, compounds were tested more than once in a particular assay. Where noted, the MIC value shown in Table 12 represents the geometric mean of the data from multiple runs.
(§2) It should be understood that the data in columns A-H represents MIC data in μg/ml and the notation “<=” means ‘less than or equal to’.
On the technique in general: Dilution methods test growth across graded concentrations, often in twofold steps.

The subject of experiment [2] is Staph aureus 1146. Nature of the experiment: MIC, microtiter broth dilution (CLSI M7-A7), Assay 1, Table 12 column B, no serum. The conditions noted are these: for MIC: Staphylococcus aureus, 1146, Staph aureus 1146, Assay 1, no serum; for MIC, column B: Staph aureus 1146, Assay 1, no serum. How it is done: as §1, §2
Experiment [3] concerns Staph aureus 2812. Nature of the experiment: MIC, microtiter broth dilution (CLSI M7-A7), Assay 1, Table 12 column E, no serum. The conditions noted are these: for MIC: Staphylococcus aureus, 2812, Staph aureus 2812, Assay 1, no serum; for MIC, column E: Staph aureus 2812, Assay 1, no serum. On the procedure: as §1, §2
The subject of experiment [4] is Staph aureus 2811. Nature of the experiment: MIC, microtiter broth dilution (CLSI M7-A7), Assay 1, Table 12 column D, no serum. Particulars: for MIC: Staphylococcus aureus, 2811, Staph aureus 2811, Assay 1, no serum; for MIC, column D: Staph aureus 2811, Assay 1, no serum. On the procedure: as §1, §2
For experiment [5], the system named is Staph aureus 1146. Description: MIC in Mueller-Hinton Broth with 50% pooled inactivated human serum, Assay 1, Table 12. The conditions noted are these: for MIC: Staphylococcus aureus, 1146, Staph aureus 1146, Assay 1, 50% human serum, read-out: MIC, column C; for MIC, column C: Staph aureus 1146, Assay 1, 50% human serum. On the procedure: as §1, §2

What is called MIC is the least concentration at which growth counts as inhibited. Turning to `COc1ccc2nccc([C@@H](O)CC[C@@H]3CCN(C4CC(c5cccc(C(F)(F)F)c5F)C4)C[C@@H]3C(=O)O)c2c1` (stereo partly drawn) [Example 193, (3R,4R)-1-{3-[2-fluoro-3-(trifluoromethyl)phenyl]cyclobutyl}-4-[(3S)-3-hydroxy-3-(6-methoxyquinolin-4-yl)propyl]piperidine-3-carboxylic acid], the minimal inhibitory concentration (MIC) in experiment [1] was 0.5 µg/mL (≈ 0.892 µM); in experiment [2], 0.125 µg/mL (≈ 0.223 µM); in experiment [3], 0.125 µg/mL (≈ 0.223 µM); in experiment [4] it was 0.125 µg/mL (≈ 0.223 µM); in experiment [5], 64 µg/mL (≈ 114 µM).
Consider `COc1ccc2nccc(C(O)CC[C@@H]3CCN(C4CC5CCCCC54)C[C@@H]3C(=O)O)c2c1` (stereo partly drawn) [Example 54, (3R,4R)-1-[(1,6)-bicyclo[4.2.0]oct-7-yl]-4-[3-hydroxy-3-(6-methoxyquinolin-4-yl)propyl] piperidine-3-carboxylic acid], for which the “MIC, column A” value in experiment [1] is greater than 64 µg/mL. For the same molecule, the “MIC, column B” value in experiment [2] is 64 µg/mL (≈ 141 µM). Besides, the “MIC, column E” value in experiment [3] is greater than 64 µg/mL. Besides, the “MIC, column D” value in experiment [4] was greater than 64 µg/mL. For the same molecule, in experiment [5], the “MIC, column C” value was greater than 64 µg/mL.
For `COc1ccc2nccc(C(O)CC[C@@H]3CCN(C4CC(c5cc(C)sn5)C4)C[C@@H]3C(=O)O)c2c1` (stereo partly drawn) [Example 22, (3R,4R)-4-[3-hydroxy-3-(6-methoxyquinolin-4-yl)propyl]-1-[3-(5-methylisothiazol-3-yl)cyclobutyl] piperidine-3-carboxylic acid], the minimal inhibitory concentration (MIC) in experiment [1] was 4 µg/mL (≈ 8.07 µM); in experiment [2] it was 1 µg/mL (≈ 2.02 µM); in experiment [3] it was 2 µg/mL (≈ 4.04 µM); in experiment [4], 1 µg/mL (≈ 2.02 µM); in experiment [5], 8 µg/mL (≈ 16.1 µM).
For `COc1ccc2nccc(C(CC[C@@H]3CCN(C4CC(c5ccccc5)C4)C[C@@H]3C(=O)O)N(C)C)c2c1` (stereo partly drawn) [Example 140, (3R,4R)-4-[3-(dimethylamino)-3-(6-methoxyquinolin-4-yl)propyl]-1-(3-phenylcyclobutyl)piperidine-3-carboxylic acid], the MIC was found to be 16 µg/mL (≈ 31.9 µM) in experiment [1]; 16 µg/mL (≈ 31.9 µM) in experiment [2]; 16 µg/mL (≈ 31.9 µM) in experiment [3]; 16 µg/mL (≈ 31.9 µM) in experiment [4]; 64 µg/mL (≈ 128 µM) in experiment [5].
With `COc1ccc2nccc(C(O)CC[C@@H]3CCN(C4CC(c5ccccc5)C4C)C[C@@H]3C(=O)O)c2c1` (stereo partly drawn) [Example 43, (3R,4R)-4-[3-hydroxy-3-(6-methoxyquinolin-4-yl)propyl]-1-(2-methyl-3-phenylcyclobutyl)piperidine-3-carboxylic acid], the MIC was 0.25 µg/mL (≈ 0.512 µM) in experiment [1]; no more than 0.0625 µg/mL in experiment [2]; no more than 0.0625 µg/mL in experiment [3]; no more than 0.0625 µg/mL in experiment [4]; 0.5 µg/mL (≈ 1.02 µM) in experiment [5].
Regarding “3-{[2-(3-chloro-8-methoxyquinolin-4-yl)ethyl]amino}-1-(trans-3-phenylcyclobutyl)pyrrolidine-3-carboxylic acid [Example 114]”, the “MIC, column A” value in experiment [1] is 1 µg/mL. Also, the “MIC, column B” value in experiment [2] stood at 0.5 µg/mL. The “MIC, column E” value in experiment [3] worked out at 0.5 µg/mL. The “MIC, column D” value in experiment [4] came out at 0.5 µg/mL. For the same molecule, the “MIC, column C” value in experiment [5] was greater than 64 µg/mL.
On to `COc1ccc2nccc(C(O)CC[C@@H]3CCN(C4CC(c5ccccn5)C4)C[C@@H]3C(=O)O)c2c1` (stereo partly drawn) [Example 21, (3R,4R)-4-[3-hydroxy-3-(6-methoxyquinolin-4-yl)propyl]-1-(3-pyridin-2-ylcyclobutyl)piperidine-3-carboxylic acid], for which the minimal inhibitory concentration (MIC) in experiment [1] stood at 16 µg/mL (≈ 33.6 µM); in experiment [2], 4 µg/mL (≈ 8.41 µM); in experiment [3], 4 µg/mL (≈ 8.41 µM); in experiment [4], 4 µg/mL (≈ 8.41 µM); in experiment [5], 16 µg/mL (≈ 33.6 µM).
`COc1ccc2ncc(F)c([C@@H](O)CC[C@@H]3CCN(C4CC(c5cc(F)cc(F)c5)C4)C[C@@H]3C(=O)O)c2c1` (stereo partly drawn) [Example 221, (3R,4R)-1-[3-(3,5-difluorophenyl)cyclobutyl]-4-[(3S)-3-(3-fluoro-6-methoxyquinolin-4-yl)-3-hydroxypropyl] piperidine-3-carboxylic acid]: the minimum inhibitory concentration (MIC) in experiment [1] amounted to 1 µg/mL (≈ 1.89 µM); in experiment [2], 0.25 µg/mL (≈ 0.473 µM); in experiment [3], 0.25 µg/mL (≈ 0.473 µM); in experiment [4], 0.25 µg/mL (≈ 0.473 µM); in experiment [5] it was 4 µg/mL (≈ 7.57 µM).
As to `COc1ccc2nccc(C(O)CC[C@@H]3CCN(C4CC(c5ccc(C(F)(F)F)cc5)C4)C[C@@H]3C(=O)O)c2c1` (stereo partly drawn) [Example 30, (3R,4R)-4-[3-hydroxy-3-(6-methoxyquinolin-4-yl)propyl]-1-{3-[4-(trifluoromethyl)phenyl]cyclobutyl} piperidine-3-carboxylic acid], the MIC is 4 µg/mL (≈ 7.37 µM) in experiment [1]; 8 µg/mL (≈ 14.7 µM) in experiment [2]; 8 µg/mL (≈ 14.7 µM) in experiment [3]; 4 µg/mL (≈ 7.37 µM) in experiment [4]; greater than 64 µg/mL in experiment [5].
With `COc1ccc2nccc([C@@H](O)CC[C@@H]3CCN(C4CC(c5ccc(F)c(F)c5F)C4)C[C@@H]3C(=O)O)c2c1` (stereo partly drawn) [Example 197, (3R,4R)-4-[(3S)-3-hydroxy-3-(6-methoxyquinolin-4-yl)propyl]-1-[3-(2,3,4-trifluorophenyl)cyclobutyl] piperidine-3-carboxylic acid], the MIC in experiment [1] is 0.5 µg/mL (≈ 0.946 µM); in experiment [2], less than 0.0625 µg/mL; in experiment [3], less than 0.0625 µg/mL; in experiment [4], less than 0.0625 µg/mL; in experiment [5], 4 µg/mL (≈ 7.57 µM).
As for `COCc1noc(C2CC(N3CC[C@@H](CCC(O)c4ccnc5ccc(OC)cc45)[C@@H](C(=O)O)C3)C2)n1` (stereo partly drawn) [Example 169, (3R,4R)-4-[3-hydroxy-3-(6-methoxyquinolin-4-yl)propyl]-1-{3-[3-(methoxymethyl)-1,2,4-oxadiazol-5-yl]cyclobutyl}piperidine-3-carboxylic acid], the MIC in experiment [1], in experiment [2], in experiment [3], in experiment [4] and in experiment [5] was greater than 64 µg/mL throughout.
On to `COc1ccc2nccc(C(O)CC[C@@H]3CCN(C4CC(c5nc(C(C)(C)C)no5)C4)C[C@@H]3C(=O)O)c2c1` (stereo partly drawn) [Example 164, (3R,4R)-1-[3-(3-tert-butyl-1,2,4-oxadiazol-5-yl)cyclobutyl]-4-[3-hydroxy-3-(6-methoxyquinolin-4-yl)propyl]piperidine-3-carboxylic acid], for which the minimal inhibitory concentration (MIC) is greater than 64 µg/mL in experiment [1]; 64 µg/mL (≈ 122 µM) in experiment [2]; 64 µg/mL (≈ 122 µM) in experiment [3]; 64 µg/mL (≈ 122 µM) in experiment [4]; greater than 64 µg/mL in experiment [5].
Turning to `COc1ccc2nccc(CCCC3(C(=O)O)CCN(CC4CC4c4ccccc4)CC3)c2c1` (stereo not shown) [Example 107, 4-[3-(6-methoxyquinolin-4-yl)propyl]-1-{[(1,2)-2-phenylcyclopropyl]methyl}piperidine-4-carboxylic acid], the “MIC, column A” value in experiment [1] stood at 64 µg/mL (≈ 140 µM). In addition, the “MIC, column B” value in experiment [2] came to 64 µg/mL (≈ 140 µM). Moreover, in experiment [3], the “MIC, column E” value stood at 16 µg/mL (≈ 34.9 µM). Moreover, the “MIC, column D” value in experiment [4] was determined as 64 µg/mL (≈ 140 µM). Further, the “MIC, column C” value in experiment [5] is greater than 64 µg/mL.
As for `CCCc1noc(C2CC(N3CC[C@@H](CCC(O)c4ccnc5ccc(OC)cc45)[C@@H](C(=O)O)C3)C2)n1` (stereo partly drawn) [Example 167, (3R,4R)-4-[3-hydroxy-3-(6-methoxyquinolin-4-yl)propyl]-1-[3-(3-propyl-1,2,4-oxadiazol-5-yl)cyclobutyl]piperidine-3-carboxylic acid], the MIC in experiment [1], in experiment [2], in experiment [3], in experiment [4] and in experiment [5] was greater than 64 µg/mL each time.
For the molecule `COc1ccc2nccc(C(O)CC[C@@H]3CCN(C4CC(c5cccc(F)c5F)C4)C[C@@H]3C(=O)O)c2c1` (stereo partly drawn) [Example 58, (3R,4R)-1-[3-(2,3-difluorophenyl)cyclobutyl]-4-[3-hydroxy-3-(6-methoxyquinolin-4-yl)propyl] piperidine-3-carboxylic acid], in experiment [5], the “MIC, column C” value was found to be 2 µg/mL (≈ 3.92 µM).
Consider `COc1ccc2ncc(F)c(C(O)CC[C@@H]3CCN(C4CC(Sc5cc(F)ccc5F)C4)C[C@@H]3C(=O)O)c2c1` (stereo partly drawn) [Example 229, (3R,4R)-1-[3-(2,5-Difluoro-phenylsulfanyl)-cyclobutyl]-4-[(S)-3-(3-fluoro-6-methoxy-quinolin-4-yl)-3-hydroxy-propyl]-piperidine-3-carboxylic acid], for which the minimal inhibitory concentration (MIC) in experiment [5] is 32 µg/mL (≈ 57.1 µM).
In the case of `COc1ccc2nccc([C@@H](O)CC[C@@H]3CCN(C4CC(c5ccc(-c6ccccc6)cc5)C4)C[C@@H]3C(=O)O)c2c1` (stereo partly drawn) [Example 70, (3R,4R)-1-(3-biphenyl-4-ylcyclobutyl)-4-[(3S)-3-hydroxy-3-(6-methoxyquinolin-4-yl)propyl] piperidine-3-carboxylic acid], the “MIC, column A” value in experiment [1] is greater than 64 µg/mL.
